According to PMC6009905, “Kushenol A and 8-prenylkaempferol, tyrosinase inhibitors, derived from Sophora flavescens” (Journal of Enzyme Inhibition and Medicinal Chemistry, 2018):
Several values for one entry are separate records, joined by “and”; a condition that tells them apart may be missing. Equal values may be shown once.

Assays:
[1] = ABTS radical assay; details: triplicate; for IC50: log-dose inhibition curve, read-out: Scavenging activity of compounds on ABTS radical, SC50
Description: The ABTS radical cation assay was modified the method of Re et al.[15] Briefly, the mixture of 7.4 mM ABTS solution with 2.6 mM potassium persulfate incubated at room temperature in dark for 24 h. […] Fifty microliter of the inhibitor was reacted with 950 μL of the ABTS solution. Absorbance value was monitored during 10 min at 732 nm using a spectrophotometer. The free radical value (SC50) was calculated by the log-dose inhibition curve. Scavenging activity (%)=[1–(extract absorbance/control absorbance)]×100.

[2] = target: T1, tyrosinase (Agaricus bisporus, UniProt C7FF04); assay: Tyrosinase assay (conversion of L-tyrosine to L-DOPA, UV-Vis 475 nm); format: biochemical; parameters: purchased Sigma-Aldrich T3824; details: L-tyrosine substrate, triplicate; for inhibition at 100 µM: 100 μM inhibitor, read-out: Inhibitory activity of compounds on tyrosinase, 100 μM (%); for IC50: read-out: Inhibitory activity of compounds on tyrosinase, IC50
Description: (§1) Enzyme assay was performed according to the modified methods in the previous papers. For the calculation of inhibitory activity, 130 μL of tyrosinase (about 46 units/mL) solvated in 0.1 mM phosphate buffer (pH: 6.8) and 20 μL of 1–0.0078 mM concentrations of the inhibitors were mixed in a 96-well plate, and then 50 μL of 2 mM L-tyrosine in buffer was added in mixture. To test the enzyme kinetic study, 130 μL of tyrosinase and 20 μL of inhibitor were also mixed, and then 50 μL of 0.62–10 mM L-tyrosine was added in a 96-well plate.
Target sequence in this assay (C7FF04 1-392 limits assumed): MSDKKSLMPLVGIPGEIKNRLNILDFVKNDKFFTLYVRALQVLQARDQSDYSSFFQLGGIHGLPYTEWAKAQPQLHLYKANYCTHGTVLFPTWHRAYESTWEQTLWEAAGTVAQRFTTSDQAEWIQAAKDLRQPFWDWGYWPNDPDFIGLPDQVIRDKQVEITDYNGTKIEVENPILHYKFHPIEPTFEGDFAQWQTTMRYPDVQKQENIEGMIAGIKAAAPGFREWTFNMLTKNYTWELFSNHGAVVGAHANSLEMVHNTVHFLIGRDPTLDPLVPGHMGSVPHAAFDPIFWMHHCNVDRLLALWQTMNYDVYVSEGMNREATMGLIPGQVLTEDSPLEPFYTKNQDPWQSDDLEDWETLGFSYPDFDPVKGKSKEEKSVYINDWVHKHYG

[3] = target: T1, tyrosinase; assay: Tyrosinase enzyme kinetics (Lineweaver-Burk plots, secondary re-plot); format: biochemical; details: 0.62-10 mM L-tyrosine
Description: as §1, with “plate. The mixture was recorded at UV-Vis 475 nm during 20 min. The inhibitory ratio was calculated according to the following equation: Inhibitory activity rate (%)=100–[(S20–S0/C20–C0]×100 where C20 and S20 are the intensity of control and inhibitor after 20 min, C0 and S0 are the intensity of control and inhibitor at 0 min.” for “plate.”
Target sequence in this assay (C7FF04 2-392): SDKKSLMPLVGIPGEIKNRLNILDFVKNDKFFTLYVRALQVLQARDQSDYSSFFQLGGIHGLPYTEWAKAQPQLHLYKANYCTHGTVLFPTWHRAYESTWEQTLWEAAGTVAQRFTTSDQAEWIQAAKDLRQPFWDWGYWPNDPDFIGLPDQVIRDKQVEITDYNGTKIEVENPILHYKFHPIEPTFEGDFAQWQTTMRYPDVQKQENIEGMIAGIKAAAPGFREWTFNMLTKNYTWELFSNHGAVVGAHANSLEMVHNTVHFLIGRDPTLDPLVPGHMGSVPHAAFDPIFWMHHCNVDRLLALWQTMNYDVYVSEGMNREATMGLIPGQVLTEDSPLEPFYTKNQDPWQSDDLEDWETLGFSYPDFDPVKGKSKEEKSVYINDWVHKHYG
This study confirmed the inhibitory mechanism of compounds 1–4 towards tyrosinase using enzyme kinetics. Enzyme kinetics were performed based on academic methods that examine a variety of substrate concentrations. The results were represented by Lineweaver–Burk plots, which confirmed the inhibition to […]. […]

[4] = system: HepG2 cells; assay: Measurement of intracellular ROS in H2O2-treated HepG2 cells; format: cell-based, Human; details: 10 μM inhibitor 1 h, then 2 mM H2O2 30 min; negative control 100.0%, positive control 701.5%
Description: Human hepatoma HepG2 cells were cultured in DMEM supplemented with 10% FBS, 100 units/mL of penicillin and 100 μg/mL of streptomycin. Cells were maintained incubation at 37 °C under a 5% CO2[16].
The concentration of intracellular ROS was measured using a carboxy-H2DCFDA probe, as previously described. HepG2 cells were seeded into six-well plates at a density of 1 × 10^5 cells/mL and incubated for 24 h. After treatment with 10 μM concentrations of inhibitors 1–5 for 1 h, H2O2 (2 mM) was added to plates for 30 min. Cells were then incubated with 10 μM carboxy-H2DCFDA for 20 min, then cells were washed and harvested. Cells were immediately examined using a flow cytometer (Cytomics FC500; Beckman, Miami, FL).
To examine their antioxidant activity in vitro, pure compounds 1–5 were added to HepG2 cells, followed by addition of 2 mM H2O2. As shown in Figure 5(A), the respective negative (H2O2: –; I: –) and positive (H2O2: +; I: –) controls generated reactive oxygen species (ROS) of 100.0% ± 9.1% and 701.5% ± 46.9%. […] The viability of HepG2 cells following treatment with all compounds 1–5 at 10 μM ranged from 100.1% ± 6.1% to 103.8% ± 5.1% (Figure S6). Compound 2 caused an […].

[5] = target: tyrosinase; parameters: method as in PMID 12951485, PMID 18175961; details: read-out: IC50 on tyrosinase (previous report); cited from earlier work

SMILES | Scavenging activity of compounds on ABTS radical, 25 μM (%) [1] | IC50 [1] | inhibition at 100 µM [2] | IC50 [2] | Binding mode [3] | ROS generation [4] | IC50 [5]
O=C1O[C@H]([C@@H](O)CO)C(O)=C1O [Ascorbic acid, reference compound] | 44.9 ± 0.9% | 27.8 ± 0.5 µM | – | – | – | – | –
C=C(C)[C@H](CC=C(C)C)Cc1c(O)cc(O)c2c1O[C@H](c1ccccc1O)CC2=O [Compound 1, kushenol A] | 93.7 ± 0.3% | 9.7 ± 0.1 µM | 101 ± 3.3% | < 10 µM and 1.1 µM | non-competitive inhibitors | – | –
CC(C)=CCc1c(O)cc(O)c2c(=O)c(O)c(-c3ccc(O)cc3)oc12 [Compound 2, 8-prenylkaempferol] | 93.2 ± 0.2% | 7.9 ± 0.3 µM | 90.4 ± 3% | < 10 µM and 2.4 µM | competitive inhibitor | 435.3% ± 43.0% | –
C=C(C)C(CC=C(C)C)Cc1c(O)cc(O)c2c(=O)c(O)c(-c3ccc(O)cc3O)oc12 (stereo not shown) [Compound 3, kushenol C] | 94.1 ± 0.2% | 4.9 ± 0.3 µM | 81.1 ± 0.1% | 24.1 ± 2.3 µM | non-competitive inhibitors | 391.7% ± 56.3% | –
COc1ccc(-c2coc3cc(O)ccc3c2=O)cc1 [Compound 4, formononetin] | 53.3 ± 2.4% | 22.8 ± 1.1 µM | 91.9 ± 2% | 19.9 ± 1.7 µM | non-competitive inhibitors | – | –
CC(C)=CCc1c(O)cc(O)c2c1O[C@H](c1ccc(O)cc1)CC2=O [Compound 5, 8-prenylnaringenin] | 91.5 ± 0.1% | 7 ± 0.2 µM | 27 ± 2.9% | – | – | – | –
C=C(C)[C@H](CC=C(C)C)Cc1c(O)cc(OC)c(C(=O)/C=C/c2ccc(O)cc2O)c1O [kuraridin] | – | – | – | – | – | – | 0.6 µM
C=C(C)C(CCC(C)(C)O)Cc1c(O)cc(OC)c(C(=O)/C=C/c2ccc(O)cc2O)c1O (stereo not shown) [kuraridinol] | – | – | – | – | – | – | 0.8 µM
C=C(C)[C@H](CC=C(C)C)Cc1c(O)cc(OC)c2c1O[C@H](c1ccc(O)cc1O)CC2=O [kurarinone] | – | – | – | – | – | – | 6.2 µM
C=C(C)[C@H](CC=C(C)C)Cc1c(O)cc(O)c2c1O[C@H](c1ccc(O)cc1O)CC2=O [sophoraflavanone G] | – | – | – | – | – | – | 6.6 µM
